Data from patent US20070043104A1, “UII-modulating compounds and their use” (priority 2005, published 2007).
Counter-ions that a name gives are not always drawn. Like-named read-outs stand apart in the source and are kept apart here.

Target: T1, human urotensin II receptor (Homo sapiens, UniProt Q9UKP6)
T1 construct: expressed in transfected cells; host or cells: NIH3T3 cells
T1 sequence (Q9UKP6 1-389): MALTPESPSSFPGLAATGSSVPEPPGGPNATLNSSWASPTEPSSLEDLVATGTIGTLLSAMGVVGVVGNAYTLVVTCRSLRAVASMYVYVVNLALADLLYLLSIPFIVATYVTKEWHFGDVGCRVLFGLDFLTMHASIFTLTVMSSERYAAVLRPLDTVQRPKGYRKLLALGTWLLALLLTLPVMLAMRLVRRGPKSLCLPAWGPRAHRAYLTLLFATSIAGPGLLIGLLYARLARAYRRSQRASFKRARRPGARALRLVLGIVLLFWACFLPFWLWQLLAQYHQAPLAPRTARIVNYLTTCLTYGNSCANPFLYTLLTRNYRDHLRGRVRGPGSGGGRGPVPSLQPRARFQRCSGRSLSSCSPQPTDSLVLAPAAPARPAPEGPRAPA
Assay: Receptor Selection and Amplification (R-SAT) functional assay, NIH3T3 cells transfected with human urotensin II receptor and β-galactosidase marker
Format: cell-based
Details: for EC50 / pEC50: eight doses in triplicate
Experimental: The functional receptor assay, Receptor Selection and Amplification Technology (R-SAT™), was used (with minor modifications from the procedure described previously (Brann, M. R. U.S. Pat. No. 5,707,798, 1998; Chem. Abstr. 1998, 128, 111548) to screen compounds for efficacy at the UII receptor. The RSAT assay was conducted as described herein.
Briefly, NIH3T3 cells were grown in tissue culture treated rollerbottles to 40-80% confluence in Dulbecco's modified Eagle's medium (DMEM) supplemented with 10% bovine calf serum (Hyclone) and 1% penicillin/streptomycin/glutamine (Invitrogen). Cells were transfected for 12-18 hours with the human urotensin II receptor and the β-galactosidase marker. After transfection, the cells were trypsinized, harvested and frozen in DMEM containing 10% DMSO. Frozen cells were later thawed and tested for a response to a control compound to perform quality control before initiation of pharmacological testing, ensuring the correct pharmacological response and sufficient sensitivity. To initiate the pharmacological assay, cells were thawed rapidly and prepared in DMEM media containing 0.4% calf serum (Hyclone), 30% UltraCulture (Biowhittaker), and 1% penicillin/streptomycin/glutamine (Invitrogen), and then plated at 10,000-40,000 cells per well of a 96½ area plate that contained either the test compounds or reference ligands. Cells were then grown in a humidified atmosphere with 5% ambient CO2 for five days. Media was then removed from the plates and marker gene activity was measured by the addition of the beta-galactosidase substrate ONPG (in PBS with 5% NP-40). The resulting colorimetric reaction was measured in a spectrophotometric plate reader (Titertek Inc.) at […].
pEC50 represents the negative logarithm of the concentration of ligand that caused 50% activation of the basal receptor response. Percent activation was calculated as the difference between the absorbance measurements in the absence of added ligand compared with that in the presence of saturating concentrations of ligand normalized to the absorbance difference for the reference ligand, which was assigned a value of 100%.
Results were determined in R-SAT assays and are expressed as pEC50, the negative of the log EC50 in molarity. Results are the average±standard deviation of 2-X determinations of the EC50 where each compound was tested in eight doses in triplicate.

[1] = NIH3T3, Table 3, percent activation normalized to the reference ligand assigned 100%, read-out: Efficacy
[2] = Table 3, negative of the log EC50 in molarity, average ± standard deviation (or range) of determinations
[3] = NIH3T3, Table 4, % efficacy normalized to UII at 100%
[4] = Table 4, negative of the log EC50 in molarity, average ± standard deviation of 2-5 determinations

Emax [1]	EC50 [2]	Emax [3]	EC50 [4]	pEC50 [2]	SMILES
89 to 129%	229 to 380 nM				CN(C)CCC(NC(=O)Nc1ccc2ccccc2c1)c1ccc(Cl)cc1 (stereo not shown) [8g, 1-[1-(4-Chlorophenyl)-3-dimethylaminopropyl]-3-(2-naphthyl)-carbamide oxalate]
		60 ± 6%	2290 nM		Cc1ccc(C(CCN(C)C)NC(=O)CCc2ccc(C(F)(F)F)cc2)cc1 (stereo not shown) [B5, N-[3-Dimethylamino-1-(4-methylphenyl)propyl]-3-(4-trifluoromethylphenyl) propionamide HCl]
91 ± 17%				7.18 ± 0.2	CN(C)CCC(NC(=O)c1ccc(Oc2ccccc2)cc1)c1ccc(Cl)cc1.O=C(O)C(=O)O (stereo not shown) [5p, N-[1-(4-Chlorophenyl)-3-dimethylaminopropyl]-4-phenoxy-benzamide oxalate]
166 to 193%	1780 to 2290 nM				CN(C)CCC(NC(=O)NCc1ccccc1)c1ccc(Cl)cc1 (stereo not shown) [8e, 1-[1-(4-Chlorophenyl)-3-dimethylaminopropyl]-3-benzyl-carbamide oxalate]
49 ± 28%				5.68 ± 0.04	CN(C)CCC(OC(=O)c1ccc2ccccc2c1)c1ccc(Cl)cc1.Cl (stereo not shown) [4l, 1-(4-Chlorophenyl)-3-dimethylamino-propyl naphthalene-2-carboxylate HCl]
115 ± 71%	1620 nM				CN(C)CCC(OC(=O)c1cn(C)c2ccccc12)c1ccc(Cl)cc1 (stereo not shown) [4o, 1-(4-Chlorophenyl)-3-dimethylamino-propyl 1-methyl-indole-3-carboxylate HCl]
120 ± 57%	2090 nM				COc1cccc(C(=O)OC(CCN(C)C)c2ccc(Cl)cc2)c1C (stereo not shown) [4e, 1-(4-Chlorophenyl)-3-dimethylamino-propyl 3-methoxy-2-methyl-benzoate HCl]
119 ± 44%				5.60 ± 0.05	Cc1ccsc1C(=O)OC(CCN(C)C)c1ccc(Cl)cc1.Cl (stereo not shown) [4j, 1-(4-Chlorophenyl)-3-dimethylamino-propyl 3-methyl-thiophene-2-carboxylate HCl]
164 ± 20%				5.54 ± 0.04	Cc1ccc(C)c(C(=O)NC(CCN(C)C)c2ccc(Cl)cc2)c1.O=C(O)C(=O)O (stereo not shown) [5j, N-[1-(4-Chlorophenyl)-3-dimethylamino-propyl]-2,5-dimethyl-benzamide oxalate]
133 ± 36%				5.95 ± 0.09	COc1cccc(NC(=O)OC(CCN(C)C)c2ccc(Cl)cc2)c1 (stereo not shown) [7b, N-[1-(4-Chlorophenyl)-3-dimethylaminopropyloxycarbonyl]-3-methoxyphenyl-amine]
96%	126 nM				CN(C)CCC(OC(=O)Nc1ccc(Oc2ccccc2)cc1)c1ccc(Cl)cc1 (stereo not shown) [7d, N-[1-(4-Chlorophenyl)-3-dimethylaminopropyloxycarbonyl]-4-phenoxyphenyl-amine]
		83 ± 11%	4170 nM		Cc1ccc(C(CCN(C)C)NC(=O)Cc2ccccc2)cc1 (stereo not shown) [B1, N-[3-Dimethylamino-1-(4-methylphenyl)propyl]-2-phenylacetamide HCl]
75 to 111%	110 to 178 nM				CN(C)CCC(NC(=O)Nc1ccc(-c2ccccc2)cc1)c1ccc(Cl)cc1 (stereo not shown) [8f, 1-[1-(4-Chlorophenyl)-3-dimethylaminopropyl]-3-(4-phenylphenyl)-carbamide oxalate]
		75 ± 1%	372 nM		CC(C(=O)NC(CCN(C)C)c1ccc2ccccc2c1)c1ccc(C(F)(F)F)cc1 (stereo not shown) [C5, N-[3-Dimethylamino-1-(2-naphthyl)propyl]-2-(4-trifluoromethylphenyl)propionamide HCl]
159 ± 1%				5.44 ± 0.08	Cc1cccc(C(=O)NC(CCN(C)C)c2ccc(Cl)cc2)c1C.O=C(O)C(=O)O (stereo not shown) [5f, N-[1-(4-Chlorophenyl)-3-dimethylamino-propyl]-2,3-dimethyl-benzamide oxalate]
147 ± 29%				5.81 ± 0.06	Cc1ccc(C(=O)NC(CCN(C)C)c2ccc(Cl)cc2)c(C)c1.O=C(O)C(=O)O (stereo not shown) [5i, N-[1-(4-Chlorophenyl)-3′-dimethylamino-propyl]-2,4-dimethyl-benzamide oxalate]

Emax [1]	EC50 [2]	Emax [3]	EC50 [4]	pEC50 [2]	SMILES
		79 ± 14%	2000 nM		COc1ccc(C=CC(=O)NC(CCN(C)C)c2ccc(C)cc2)cc1 (stereo not shown) [B9, N-[3-Dimethylamino-1-(4-methylphenyl)propyl]-4-methoxy-cinnamic amide HCl]
95 ± 37%				5.97 ± 0.24	Cc1cc(Br)ccc1C(=O)OC(CCN(C)C)c1ccc(Cl)cc1.Cl (stereo not shown) [4g, 1-(4-Chlorophenyl)-3-dimethylamino-propyl 4-bromo-2-methyl-benzoate HCl]
170 ± 21%				5.41 ± 0.07	Cc1ccccc1NC(=O)OC(CCN(C)C)c1ccc(Cl)cc1 (stereo not shown) [7a, N-[1-(4-Chlorophenyl)-3-dimethylaminopropyloxycarbonyl]-2-methylphenyl-amine]
		128 ± 10%	427 nM		CN(C)CCC(NC(=O)/C=C/c1ccccc1)c1ccc(Cl)cc1 (stereo not shown) [A7, N-[1-(4-Chlorophenyl)-3-dimethylamino-propyl]-3-cinnamic amide HCl]
53 ± 27%				6.28 ± 0.14	CN(C)CCC(OC(=O)c1ccc(-c2ccccc2)cc1)c1ccc(Cl)cc1.Cl (stereo not shown) [4m, 1-(4-Chlorophenyl)-3-dimethylamino-propyl 4-phenyl-benzoate HCl]
86%				5.73 ± 0.15	Cc1ccc(C)c(C(=O)OC(CCN(C)C)c2ccc(Cl)cc2)c1.Cl (stereo not shown) [4h, 1-(4-Chlorophenyl)-3-dimethylamino-propyl 2,5-dimethyl-benzoate HCl]
142 ± 14%				5.76 ± 0.13	Cc1c(Cl)cccc1C(=O)NC(CCN(C)C)c1ccc(Cl)cc1.O=C(O)C(=O)O (stereo not shown) [5h, N-[1-(4-Chlorophenyl)-3-dimethylamino-propyl]-3-chloro-2-methyl-benzamide oxalate]
		67 ± 14%	5370 nM		COc1ccc(CCC(=O)NC(CCN(C)C)c2ccc(C)cc2)cc1 (stereo not shown) [B6, N-[3-Dimethylamino-1-(4-methylphenyl)propyl]-3-(4-methoxyphenyl)propionamide HCl]
152 ± 20%				5.75 ± 0.22	Cc1cc(C)c(C(=O)NC(CCN(C)C)c2ccc(Cl)cc2)cc1C.O=C(O)C(=O)O (stereo not shown) [5m, N-[1-(4-Chlorophenyl)-3-dimethylaminopropyl]-2,4,5-trimethyl-benzamide oxalate]
		73 ± 9%	4570 nM		Cc1ccc(C(CCN(C)C)NC(=O)CCc2ccccc2)cc1 (stereo not shown) [B4, N-[3-Dimethylamino-1-(4-methylphenyl)propyl]-3-phenylpropionamide HCl]
95 ± 24%				5.64 ± 0.02	CN(C)CCC(OC(=O)c1cccc2ccccc12)c1ccc(Cl)cc1.Cl (stereo not shown) [4k, 1-(4-Chlorophenyl)-3-dimethylamino-propyl naphthalene-1-carboxylate HCl]
60 ± 4%				6.33 ± 0.6	Cc1cc(C)c(C(=O)OC(CCN(C)C)c2ccc(Cl)cc2)cc1C.Cl (stereo not shown) [4i, 1-(4-Chlorophenyl)-3-dimethylamino-propyl 2,4,5-trimethyl-benzoate HCl]
118 ± 37%				5.95 ± 0.05	Cc1c(Cl)cccc1C(=O)OC(CCN(C)C)c1ccc(Cl)cc1.Cl (stereo not shown) [4f, 1-(4-Chlorophenyl)-3-dimethylamino-propyl 3-chloro-2-methyl-benzoate HCl]
176 to 231%	1820 to 2340 nM				COc1ccc(NC(=O)NC(CCN(C)C)c2ccc(Cl)cc2)cc1 (stereo not shown) [8h, 1-[1-(4-Chlorophenyl)-3-dimethylaminopropyl]-3-(4-methoxyphenyl)-carbamide oxalate]
		121 ± 31%	1740 nM		CN(C)CCC(NC(=O)Cc1ccccc1)c1ccc2ccccc2c1 (stereo not shown) [C1, N-[3-Dimethylamino-1-(2-naphthyl)propyl]-2-phenylacetamide HCl]
180 ± 8%				5.67 ± 0.11	CN(C)CCC(OC(=O)NCc1ccccc1)c1ccc(Cl)cc1 (stereo not shown) [7e, N-[1-(4-Chlorophenyl)-3-dimethylaminopropyloxycarbonyl]-benzyl-amine]
